Data as given in patent publication US20230414625A1, “Combination Antibacterial Composition and Short-Course Antibacterial Regimen” (The Global Alliance for TB Drug Development, Inc., priority 2015, published 2023).
Like-named read-outs stand apart in the source and are kept apart here.

Experiments:
[1] = system: Gram-positive and Gram-negative bacteria; conditions: cited from earlier work
cytochrome P450 = conditions: cited from earlier work
[2] = system: Mycobacterium tuberculosis H37Rv; type: in vivo
[3] = Pharmacokinetics of oxazolidinones after single oral dose, plasma LC/MS; type: in vivo, BALB/c mice
Method: Pharmacokinetics of oxazolidinones. Uninfected female BALB/c mice weighing approximately 20 g received single doses of SZD (50 mg/kg), LZD (100 mg/kg), TZD (10 or 20 mg/kg) or AZD (50 or 200 mg/kg). Three mice per dose per time point were sampled by cardiac puncture at 0.5, 1, 2, 4, 8 and 24 hours post-dose (plus an additional 16 hour time point for AZD). Plasma drug concentrations were quantified by a validated LC/MS method performed at AstraZeneca (for AZD only) (14) or Rutgers New Jersey Medical School (for other oxazolidinones). Standards for the different oxazolidinones were provided by the sponsors. At Rutgers, analytes of interest were extracted by combining 20 μl of mouse plasma with 20 μl of acetonitrole:water (1:1), and 180 μl of methanol:acetonitrile (1:1) containing 10 mg/ml of verapamil (Sigma-Aldrich) as internal standard. The mixture was vortexed and centrifuged, and 100 μL of the supernatant was recovered and combined with 10 μL of water for analysis. LC/MS-MS analysis was performed with an Agilent 1260 LC-system coupled to an AB Sciex 4000 Q-trap Mass Spectrometer (positive mode, electrospray ionization), and an Agilent column SB-C8, 2.1×30 mm, 3.5 μm, with the column temperature fixed at 24° C. Mobile phase A was 0.1% formic acid in 100% H2O and mobile phase B was 0.1% formic acid in 100% acetonitrile. Injection volumes were routinely 2 μl. The Mass Selective Detector was set to MRM (multiple reaction monitoring) mode using positive polarity ionization, monitoring for the ions of interest SZD (m/z 354.12/312.04), SZD-M1(370.13/238.12), LZD(338.00/235.00), and TZD(371.12/343.00) and the internal standard (m/z 455.4/165.2). The lower limit of quantification for all oxazolidinones was […]. PK parameters were determined by non-compartmental analysis using WinNonlin 6.4 (Certara, Princeton, NJ).

[4] = Example 1, lung, 1 month of treatment, D0 count 6.17±0.27, PMD 50 mg/kg, LZD 100 mg/kg, SZD 50 mg/kg
[5] = female, BALB/c, mouse, in vivo, single oral dose 50 mg/kg, mean, plasma, read-out: AUC0-24 hr
[6] = female, BALB/c, mouse, in vivo, single oral dose 50 mg/kg, mean, plasma, read-out: Cmax
[7] = female, BALB/c, mouse, in vivo, single oral dose 50 mg/kg, mean, plasma, read-out: Tmax
[8] = female, BALB/c, mouse, in vivo, single oral dose 50 mg/kg, mean, plasma, read-out: t1/2 (converted)
[9] = female, BALB/c, mouse, in vivo, po, 100 mg/kg
[10] = M1 metabolite after single oral dose of sutezolid 50 mg/kg, mean, plasma
[11] = female, BALB/c, mouse, in vivo, po, 10 mg/kg
[12] = female, BALB/c, mouse, in vivo, po, 20 mg/kg

In the case of O=[N+]([O-])c1cn2c(n1)OCC(OCc1ccc(OC(F)(F)F)cc1)C2 (stereo in doubt) [PMD, (6S)-2-nitro-6-{[4-(trifluoromethoxy)benzyl]oxy}-6,7-dihydro-5H-imidazo[2,1-b][1,3]oxazine], the “activity against a broad range of Gram-positive and Gram-negative bacteria” value [1] is given as “no significant activity”, the “cytochrome P450 interactions” value (cytochrome P450) is given as “no significant cytochrome P450 interactions” and the “Mean (±SD) log10 CFU count at M1” value [2, 4] is given as 4.57 ± 0.22 log10 CFU.

In the case of O=C([C@@H](O)CO)N1CC=C(c2c(F)cc(N3C[C@H](COc4ccon4)OC3=O)cc2F)CC1 [AZD], the “predicted AUC0-24 h” value ([3]; 125 mg/kg dose, interpolated between the 50 and 200 mg/kg doses) is reported as 160000 to 190000 ng·h/mL, the AUC(0-t) [3, 5] is reported as 74800 ng·h/mL and the Cmax [3, 6] is reported as 20400 ng/mL. For the same compound, the Tmax [3, 7] was 42 min, the half-life [3, 8] was 144 min and the AUC(0-t) ([3]; female, BALB/c, mouse, in vivo, single oral dose 200 mg/kg, mean, plasma, read-out: AUC0-24 hr) was 220000 ng·h/mL. The Cmax ([3]; female, BALB/c, mouse, in vivo, single oral dose 200 mg/kg, mean, plasma, read-out: Cmax) was 31400 ng/mL, the Tmax ([3]; female, BALB/c, mouse, in vivo, single oral dose 200 mg/kg, mean, plasma, read-out: Tmax) was 42 min and the half-life ([3]; female, BALB/c, mouse, in vivo, single oral dose 200 mg/kg, mean, plasma, read-out: t1/2 (converted)) was 516 min.

For COc1nc2ccc(Br)cc2cc1[C@@H](c1ccccc1)[C@@](O)(CCN(C)C)c1cccc2ccccc12 [BDQ, (1R, 2S)-1-(6-bromo-2methoxy-3-quinolinyl)-4-(dimethylamino)-2-(1-naphthalenyl)-1-phenyl-2-butanol compound with fumaric acid (1:1)], the “Mean (±SD) log10 CFU count at M1” value [2, 4] was 3.24 ± 0.25 log10 CFU.

With CC(=O)NC[C@H]1CN(c2ccc(N3CCOCC3)c(F)c2)C(=O)O1 [LZD, (S)—N-[[3-[3-Fluoro-4-(4morpholinyl)phenyl]-2-oxo-5-oxazolidinyl]methyl]-acetamide] the Cmax [3, 9] was 81900 ng/mL, the Tmax [3, 9] was 30 min and the AUC(0-t) ([3]; female, BALB/c, mouse, in vivo, po, 100 mg/kg, AUC0-24 h) was 244000 ng·h/mL. For the same compound, the AUC(0-t) ([3]; female, BALB/c, mouse, in vivo, po, 100 mg/kg, AUC0-24 hr) was 244000 ng·h/mL, the half-life ([3]; female, BALB/c, mouse, single oral dose 100 mg/kg, mean, plasma, read-out: t1/2 (converted)) was 180 min and the “Mean (±SD) log10 CFU count at M1” value ([2]; in vivo) was 4.97 ± 0.26 log10 CFU.

In the case of CC(=O)NC[C@H]1CN(c2ccc(N3CCSCC3)c(F)c2)C(=O)O1 [SZD, sutezolid], the AUC(0-t) [3, 5] is reported as 3360 ng·h/mL, the Cmax [3, 6] is reported as 1290 ng/mL and the Tmax [3, 7] is reported as 30 min. The half-life [3, 8] was 168 min and the “Mean (±SD) log10 CFU count at M1” value [2, 4] was 3.85 ± 0.37 log10 CFU.

Compound CC(=O)NC[C@H]1CN(c2ccc(N3CC[S+]([O-])CC3)c(F)c2)C(=O)O1 [Sutezolid M1] has an AUC0-24 hr [3, 10] of 31945 ng·h/mL, a Cmax [3, 10] of 15233 ng/mL and a Tmax [3, 10] of 30 min. For the same compound, the “Cmax relative to SZD parent” value ([3]; after oral SZD 50 mg/kg) was “approximately 10 times” and the “mean AUC0-24 h relative to SZD parent” value ([3]; after oral SZD 50 mg/kg) was “approximately 10 times”.

Compound Cn1nnc(-c2ccc(-c3ccc(N4C[C@H](CO)OC4=O)cc3F)cn2)n1 [TZD, tedizolid] has an AUC(0-t) ([3]; female, BALB/c, mouse, in vivo, 10 mg/kg, total drug AUC0-24 h) of 40000 ng·h/mL, a Cmax [3, 11] of 6420 ng/mL and a Tmax [3, 11] of 42 min. It also gave a half-life [3, 11] of 180 min, an AUC(0-t) ([3]; female, BALB/c, mouse, in vivo, po, 10 mg/kg, AUC0-24 hr) of 40400 ng·h/mL and a Cmax [3, 12] of 11400 ng/mL. The Tmax [3, 12] was 30 min, the half-life [3, 12] was 234 min and the AUC(0-t) ([3]; female, BALB/c, mouse, in vivo, po, 20 mg/kg, AUC0-24 hr) was 77700 ng·h/mL.
